Measurements as given in US10662187B2, “Bruton's tyrosine kinase inhibitors” (Zibo Biopolar Changsheng Pharmaceutical Co. Ltd., priority 2016, dated 2020).
pIC50: −log10 of the molar value. Where two headings read alike, the source gives them in different places.

Experiments:
BTK [1] = biological target: T1, BTK (Homo sapiens (Human), UniProt Q06187); assay: Btk kinase assay (HTRF); format: biochemical
Summary of the method: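 HTRF read-out with enzyme, inhibitor, ATP and 1 μM peptide substrate in 50 mM Hepes pH 7.0, 0.02% NaN3, 0.01% BSA, 0.1 mM orthovanadate. Activity measured across compound concentrations against no-inhibitor controls, with no-enzyme wells as baseline.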
Target sequence in this assay (Q06187 whole entry, species assumed): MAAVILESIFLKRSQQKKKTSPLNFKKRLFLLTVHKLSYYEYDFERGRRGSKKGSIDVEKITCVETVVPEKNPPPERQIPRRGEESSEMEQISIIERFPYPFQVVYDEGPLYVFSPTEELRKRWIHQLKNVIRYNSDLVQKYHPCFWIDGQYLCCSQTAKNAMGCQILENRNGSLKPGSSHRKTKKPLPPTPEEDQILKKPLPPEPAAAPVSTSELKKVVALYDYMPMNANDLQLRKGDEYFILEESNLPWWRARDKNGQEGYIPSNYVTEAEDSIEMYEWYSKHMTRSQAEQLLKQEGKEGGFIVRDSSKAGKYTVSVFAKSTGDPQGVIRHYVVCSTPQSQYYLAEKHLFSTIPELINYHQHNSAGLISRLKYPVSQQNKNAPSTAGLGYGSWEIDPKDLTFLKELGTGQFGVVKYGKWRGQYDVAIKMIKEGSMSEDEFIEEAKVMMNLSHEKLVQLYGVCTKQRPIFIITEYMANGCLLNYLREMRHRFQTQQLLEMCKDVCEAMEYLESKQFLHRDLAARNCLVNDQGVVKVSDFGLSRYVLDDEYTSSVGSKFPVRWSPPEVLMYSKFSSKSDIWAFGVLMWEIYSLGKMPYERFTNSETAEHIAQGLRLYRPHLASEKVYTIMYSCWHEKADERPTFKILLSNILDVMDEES

BTK [2] = biological target: T1, BTK; assay: Btk occupancy in cellular assays (PCI-33380 labeling, Jeko-1 cells); format: cell-based; conditions: 1.5 h pre-incubation with compound, PCI-33380 5 μM 1 h
Method: Btk Occupancy in Cellular Assays
For PCI-33380 labeling of human B cells, 10^6 Jeko-1 cells were pre-incubated with compound for 1.5 h before labeling. Then cells were treated with PCI-33380 at 5 μM for 1 h. Washed, lysed in Ripa buffer containing sample reducing agent, and analyzed by SDS/PAGE and fluorescent gel scanning using a Typhoon scanner 9500 (GE Healthcare) (Ex, 532 nm; Em, 555 nm). The gel was then blotted and total Btk levels detected by standard Western blot with Btk antibody (CST).
Target sequence in this assay (Q06187 whole entry): as the sequence (Q06187 whole entry, species assumed) above

[3] = [ATP]=80 μM, BTK=3.4 nM, read-out: BTK Inhibition

pIC50 (BTK [1]; [3]) | concentration sufficient to fully occupy the active site of Btk (BTK [2]) [nM] | Compound | pIC50 (BTK [1])
> 8.00 | 100 | C=CC(=O)N1CC[C@@H](n2nc(-c3ccc(Oc4cccc(OC)c4Cl)cc3)c3cncc(OC)c32)C1 [Compound 69, (R)-1-(3-(3-(4-(2-chloro-3-methoxyphenoxy)phenyl)-7-methoxy-1H-pyrazolo[4,3-c]pyridin-1-yl)pyrrolidin-1-yl)prop-2-en-1-one] | –
> 8.00 | 25 | C=CC(=O)N1CCC[C@@H](n2nc(-c3ccc(Oc4cccc(OC)c4F)cc3)c3cncc(OCCC)c32)C1 [Compound 77, (R)-1-(3-(3-(4-(2-fluoro-3-methoxyphenoxy)phenyl)-7-propoxy-1H-pyrazolo[4,3-c]pyridin-1-yl)piperidin-1-yl)prop-2-en-1-one] | –
> 8.00 | 50 | C=CC(=O)N1CCC[C@@H](n2nc(-c3ccc(Oc4cccc(OC)c4F)cc3)c3c(C)nccc32)C1 [Compound 78, (R)-1-(3-(3-(4-(2-fluoro-3-methoxyphenoxy)phenyl)-4-methyl-1H-pyrazolo[4,3-c]pyridin-1-yl)piperidin-1-yl)prop-2-en-1-one] | –
> 8.00 | 50 | C=CC(=O)N1CC[C@@H](n2nc(-c3ccc(Oc4cccc(OC)c4F)cc3)c3cncc(OC)c32)C1 [Compound 79, (R)-1-(3-(3-(4-(2-fluoro-3-methoxyphenoxy)phenyl)-7-methoxy-1H-pyrazolo[4,3-c]pyridin-1-yl)pyrrolidin-1-yl)prop-2-en-1-one] | –
> 8.00 | 50 | C=CC(=O)N1CC[C@@H](n2nc(-c3ccc(Oc4cccc(OC)c4F)cc3)c3cncc(OCC)c32)C1 [Compound 80, (R)-1-(3-(7-cthoxy-3-(4-(2-fluoro-3-methoxyphenoxy)phenyl)-1H-pyrazolo[4,3-c]pyridin-1-yl)pyrrolidin-1-yl)prop-2-en-1-one] | –
> 8.00 | 100 | C=CC(=O)N1CCC[C@@H](n2nc(-c3ccc(Oc4cccc(OC)c4F)cc3)c3cncc(OCCO)c32)C1 [Compound 98, (R)-1-(3-(3-(4-(2-fluoro-3-methoxyphenoxy)phenyl)-7-(2-hydroxyethoxy) 1H-pyrazolo[4,3-c]pyridin-1-yl)piperidin-1-yl)prop-2-en-1-one] | –
> 8.00 | 100 | C=CC(=O)N1CCC[C@@H](n2nc(-c3ccc(Oc4cccc(OC)c4F)cc3)c3cncc(OC4CCOC4)c32)C1 (stereo partly drawn) [Compound 99, 1-((3R)-3-(3-(4-(2-fluoro-3-methoxyphenoxy)phenyl)-7-((tctrahydrofuran-3-yl)oxy)-1H-pyrazolo[4,3-c]pyridin-1-yl)piperidin-1-yl)prop-2-en-1-one] | –
7.00 to 8.00 | – | C=CC(=O)N1CC[C@@H](n2nc(-c3ccc(-c4cccc(C)c4)cc3)c3cnccc32)C1 [Compound 107, (R)-1-(3-(3-(3′-methyl-[1,1′-biphenyl]-4-yl)-1H-pyrazolo[4,3-c]pyridin-1-yl)pyrrolidin-1-yl)prop-2-en-1-one] | –
6.00 to 7.00 | – | C=CC(=O)N1CC[C@@H](n2nc3ccncc3c2-c2ccc(-c3cccc(C)c3)cc2)C1 [Compound 108, (R)-1-(3-(3-(3′-methyl-[1,1′-biphenyl]-4-yl)-2H-pyrazolo[4,3-c]pyridin-2-yl)pyrrolidin-1-yl)prop-2-en-1-one] | –
7.00 to 8.00 | – | C=CC(=O)N1CCC[C@@H](n2nc(-c3ccc(N4CCC(N5CCCCC5)CC4)cc3)c3cnccc32)C1 [Compound 110, (R)-1-(3-(3-(4-([1,4′-bipiperidin]-1′-yl)phenyl)-1H-pyrazolo [4,3-c]pyridin-1-yl)piperidin-1-yl)prop-2-en-1-one] | –
6.00 to 7.00 | – | C=CC(=O)N1CC[C@@H](n2nc(-c3ccc(N4CCN(C)CC4)cc3)c3cnccc32)C1 [Compound 112, (R)-1-(3-(3-(4-(4-methylpiperazin-1-yl)phenyl)-1H-pyrazolo [4,3-c]pyridin-1-yl)pyrrolidin-1-yl)prop-2-en-1-one] | –
5.00 to 6.00 | – | C=CC(=O)N1CCC[C@@H](n2nc(Nc3ccc(N4CCN(C)CC4)cc3)c3cnccc32)C1 [Compound 114, (R)-1-(3-(3-((4-(4-methylpiperazin-1-yl)phenyl)amino)-1H-pyrazolo[4,3-c]pyridin-1-yl)piperidin-1-yl)prop-2-en-1-one] | –
6.00 to 7.00 | – | C=CC(=O)N1CCC[C@@H](n2nc(-c3ccc(N4CCN(S(C)(=O)=O)CC4)cc3)c3cnccc32)C1 [Compound 115, (R)-1-(3-(3-(4-(4-(methylsulfonyl)piperazin-1-yl)phenyl)-1H-pyrazolo[4,3-c]pyridin-1-yl)piperidin-1-yl)prop-2-en-1-one] | –
7.00 to 8.00 | – | C=CC(=O)N1CCC(n2nc(-c3ccc(NC(=O)c4cccc(C(F)(F)F)c4)cc3)c3cnccc32)C1 (centres unmarked) [Compound 116, N-{4-[1-(1-Acryloyl-pyrrolidin-3-yl)-1H-pyrazolo[4,3-c]pyridin-3-yl]-phenyl}-3-trifluoromethyl-benzamide] | –
7.00 to 8.00 | – | C=CC(=O)N1CCC[C@@H](n2nc(-c3ccc(NC(=O)c4cccc(C(F)(F)F)c4)cc3)c3cnccc32)C1 [Compound 117, (R)-N-(4-(1-(1-acryloylpiperidin-3-yl)-1H-pyrazolo[4,3-c]pyridin-3-yl)phenyl)-3-(trifluoromethyl)benzamide] | –
7.00 to 8.00 | – | COc1cccc(Oc2ccc(-c3nn([C@@H]4CCCN(C(=O)C(C)O)C4)c4c(OC)cncc34)cc2)c1F (stereo partly drawn) [Compound 118, 1-((R)-3-(3-(4-(2-fluoro-3-methoxyphenoxy)phenyl)-7-methoxy-1H-pyrazolo[4,3-c]pyridin-1-yl)piperidin-1-yl)-2-hydroxypropan-1-one] | –
7.00 to 8.00 | – | COc1cccc(Oc2ccc(-c3nn([C@@H]4CCCN(C(=O)C(=O)O)C4)c4c(OC)cncc34)cc2)c1F [Compound 119, (R)-2-(3-(3-(4-(2-fluoro-3-methoxyphenoxy)phenyl)-7-methoxy-1H-pyrazolo[4,3-c]pyridin-1-yl)piperidin-1-yl)-2-oxoacetic acid] | –
7.00 to 8.00 | – | COc1cccc(Oc2ccc(-c3nn([C@@H]4CCCN(C(=O)C(N)=O)C4)c4c(OC)cncc34)cc2)c1F [Compound 120, (R)-2-(3-(3-(4-(2-fluoro-3-methoxyphenoxy)phenyl)-7-methoxy-1H-pyrazolo[4,3-c]pyridin-1-yl)piperidin-1-yl)-2-oxoacetamide] | –
– | – | COc1cccc(Oc2ccc(-c3nn([C@@H]4CCCC(C(=O)O)C4)c4c(OC)cncc34)cc2)c1F (stereo partly drawn) [Compound 121, (3R)-3-(3-(4-(2-fluoro-3-methoxyphenoxy)phenyl)-7-methoxy-1H-pyrazolo[4,3-c]pyridin-1-yl)cyclohexanecarboxylic acid] | 7.00 to 8.00
> 8.00 | – | COc1cccc(Oc2ccc(-c3nn(C4CCC(C(=O)O)CC4)c4c(OC)cncc34)cc2)c1F (centres unmarked) [Compound 122, 4-(3-(4-(2-fluoro-3-methoxyphenoxy)phenyl)-7-methoxy-1H-pyrazolo[4,3-c]pyridin-1-yl)cyclohexanecarboxylic acid] | –
< 5.00 | – | O=C(Nc1ccc(-c2nn(C3CCC(C(=O)O)CC3)c3ccncc23)cc1)c1ccccc1 (centres unmarked) [Compound 123, 4-(3-(4-benzamidophenyl)-1H-pyrazolo[4,3-c]pyridin-1-yl)cyclohexanecarboxylic acid] | –
< 5.00 | – | O=C(O)C1CCC(n2nc(-c3ccc(-c4ccccc4)cc3)c3cnccc32)CC1 (centres unmarked) [Compound 124, 4-(3-([1,1′-biphenyl]-4-yl)-1H-pyrazolo[4,3-c]pyridin-1-yl)cyclohexanecarboxylic acid] | –
